Reference: patent US9801961B2, “2-phenylimidazo[1,2-a]pyrimidines as imaging agents” (Hoffmann-La Roche Inc., priority 2013, dated 2017)

Test system: native tau aggregates
Assay: TAU radioligand in vitro displacement assay ([3H]T808 autoradiography on human AD brain sections)
Type: binding
Details: radioligand [3H]T808 10 nM, 50 mM Tris pH 7.4, room temperature, 30 min; for % displacement of [3H]T808 (10 nM) at 10 nM: compound 10 nM; for % displacement of [3H]T808 (10 nM) at 1 uM: compound 1 uM
Description: TAU Radioligand-In-Vitro Displacement Assay
This in vitro binding assay assesses the affinity of compounds for native tau aggregates. The compounds are co-incubated with the well-established tau specific radioligand [^3H]T808 and the compound's displacement potency of [^3H]T808 binding is determined by in vitro autoradiography using human Alzheimer's disease (AD) brain sections (FIG. 1).
AD human brains are purchased from Banner Sun Health Research Institute (Sun City, Ariz., USA). Pathological diagnosis of AD is made according to standard NIA-Reagan Institute criteria based on neuropathological data. The radioligand [^3H]T808 was synthesized in-house ([^3H]-2-[4-(2-Fluoro-ethyl)-piperidin-1-yl]-benzo[4,5]imidazo[1,2-a]pyrimidine, radiochemical purity 99.0%). As a reference cold T808 is used (2-[4-(2-Fluoro-ethyl)-piperidin-1-yl]-benzo[4,5]imidazo[1,2-a]pyrimidine). For the autoradiography FujiFilm Imaging Plates (BAS-IP TR 2025) are exposed to the sections and read with a FujiFilm IP reader (BAS-5000).
Ten μm thick human AD brain sections are generated with a cryostat (Leica CM3050) at −17° C. chamber temperature and −15° C. object temperature. Sections are transferred to Histobond+microscope slides (Marienfeld Laboratory Glasware). After drying for 3 hours at room temperature the sections are stored at −20° C. The sections are incubated with the radioligand (10 nM) and the respective cold compound (at various concentrations) in 50 mM Tris buffer, pH 7.4 at room temperature for 30 min. After washing 3×10 min at 4° C. in 50 mM Tris buffer, pH 7.4 and 3 quick dips in H2O dist. at 4° C. the sections are dried at 4° C. for 3 h. The sections are placed in a FujiFilm Cassette (BAS 2025), exposed with an Imaging Plate for five days and afterwards scanned with a resolution of […].
The signal intensity (Dens—PSL/mm2) in the region of interest (ROI) of the autoradiogram is quantified with the software MCID analysis (version 7.0, Imaging Research Inc.). The specific binding (SB) of [^3H]T808 binding in absence or in presence of a compound is calculated by subtracting the non-specific binding signal in the white matter, thus yielding SB[3H]T808 only and SBcompund. The % displacement by the various compounds is calculated as following: % displacement=100−(SBcompund/SB[3H]T808 only)*100.
In each experiment cold T808 is used as a positive internal control. Co-incubation of equimolar amounts of hot and cold T808 is expected to reduce specific binding by approximately 50%.

CNc1ccn2cc(-c3ccccc3)nc2n1 [Example 1, N-Methyl-2-phenylimidazo[1,2-a]pyrimidin-7-amine]
% displacement of [3H]T808 (10 nM) at 10 nM: 37%

FC1CCN(c2ccn3cc(-c4ccccc4)nc3n2)CC1 [Example 2, 7-(4-Fluoropiperidin-1-yl)-2-phenylimidazo[1,2-a]pyrimidine]
% displacement of [3H]T808 (10 nM) at 10 nM: 19%
% displacement of [3H]T808 (10 nM) at 1 uM: 72%

COc1ccc(-c2cn3ccc(N4CCC(F)CC4)nc3n2)cc1 [Example 3, 7-(4-Fluoropiperidin-1-yl)-2-(4-methoxyphenyl)imidazo[1,2-a]pyrimidine]
% displacement of [3H]T808 (10 nM) at 10 nM: 31%
% displacement of [3H]T808 (10 nM) at 1 uM: 87%

FC1CCN(c2ccn3cc(-c4ccc(Cl)cc4)nc3n2)CC1 [Example 4, 2-(4-Chlorophenyl)-7-(4-fluoropiperidin-1-yl)imidazo[1,2-a]pyrimidine]
% displacement of [3H]T808 (10 nM) at 1 uM: 58%

COc1cccc(-c2cn3ccc(N4CCC(F)CC4)nc3n2)c1 [Example 5, 7-(4-Fluoropiperidin-1-yl)-2-(3-methoxyphenyl)imidazo[1,2-a]pyrimidine]
% displacement of [3H]T808 (10 nM) at 10 nM: 33%
% displacement of [3H]T808 (10 nM) at 1 uM: 74%

Fc1ccc(-c2cn3ccc(N4CCC(F)CC4)nc3n2)cc1 [Example 6, 2-(4-Fluorophenyl)-7-(4-fluoropiperidin-1-yl)imidazo[1,2-a]pyrimidine]
% displacement of [3H]T808 (10 nM) at 1 uM: 65%

FC1CCN(c2ccn3cc(-c4ccc5c(c4)OCO5)nc3n2)CC1 [Example 7, 2-(1,3-Benzodioxol-5-yl)-7-(4-fluoropiperidin-1-yl)imidazo[1,2-a]pyrimidine]
% displacement of [3H]T808 (10 nM) at 10 nM: 21%
% displacement of [3H]T808 (10 nM) at 1 uM: 75%

FC1CCN(c2ccn3cc(-c4ccc5c(c4)OCCO5)nc3n2)CC1 [Example 8, 2-(2,3-Dihydro-1,4-benzodioxin-6-yl)-7-(4-fluoropiperidin-1-yl)imidazo[1,2-a]pyrimidine]
% displacement of [3H]T808 (10 nM) at 1 uM: 72%

FC1CCN(c2ccn3cc(-c4ccc(N5CCOCC5)cc4)nc3n2)CC1 [Example 9, 4-[4-[7-(4-Fluoropiperidin-1-yl)imidazo[1,2-a]pyrimidin-2-yl]phenyl]morpholine]
% displacement of [3H]T808 (10 nM) at 1 uM: 75%

Cc1cccc(-c2cn3ccc(N4CCC(F)CC4)nc3n2)c1 [Example 10, 7-(4-Fluoropiperidin-1-yl)-2-(3-methylphenyl)imidazo[1,2-a]pyrimidine]
% displacement of [3H]T808 (10 nM) at 1 uM: 79%

Cc1ccc(-c2cn3ccc(N4CCC(F)CC4)nc3n2)cc1 [Example 11, 7-(4-Fluoropiperidin-1-yl)-2-(4-methylphenyl)imidazo[1,2-a]pyrimidine]
% displacement of [3H]T808 (10 nM) at 10 nM: 4%
% displacement of [3H]T808 (10 nM) at 1 uM: 81%

Fc1ccccc1-c1cn2ccc(N3CCC(F)CC3)nc2n1 [Example 12, 2-(2-Fluorophenyl)-7-(4-fluoropiperidin-1-yl)imidazo[1,2-a]pyrimidine]
% displacement of [3H]T808 (10 nM) at 1 uM: 50%

Oc1cccc(-c2cn3ccc(N4CCC(F)CC4)nc3n2)c1 [Example 13, 3-[7-(4-Fluoropiperidin-1-yl)imidazo[1,2-a]pyrimidin-2-yl]phenol]
% displacement of [3H]T808 (10 nM) at 1 uM: 67%

FC1CCN(c2ccn3cc(-c4ccc(N5CCCC5)cc4)nc3n2)CC1 [Example 14, 7-(4-Fluoropiperidin-1-yl)-2-(4-pyrrolidin-1-ylphenyl)imidazo[1,2-a]pyrimidine]
% displacement of [3H]T808 (10 nM) at 10 nM: 18%
% displacement of [3H]T808 (10 nM) at 1 uM: 75%

FC1CCN(c2ccn3cc(-c4cccc(OC(F)(F)F)c4)nc3n2)CC1 [Example 15, 7-(4-Fluoropiperidin-1-yl)-2-[3-(trifluoromethoxy)phenyl]imidazo[1,2-a]pyrimidine]
% displacement of [3H]T808 (10 nM) at 10 nM: 14%

FCOc1cccc(-c2cn3ccc(N4CCCC4)nc3n2)c1 [Example 16, 2-[3-(Fluoromethoxy)phenyl]-7-pyrrolidin-1-ylimidazo[1,2-a]pyrimidine]
% displacement of [3H]T808 (10 nM) at 10 nM: 27%
% displacement of [3H]T808 (10 nM) at 1 uM: 88%

FCCOc1cccc(-c2cn3ccc(N4CCCC4)nc3n2)c1 [Example 17, 2-[3-(2-Fluoroethoxy)phenyl]-7-pyrrolidin-1-ylimidazo[1,2-a]pyrimidine]
% displacement of [3H]T808 (10 nM) at 1 uM: 76%

CN(C)c1ccn2cc(-c3ccccc3)nc2n1 [Example 18, N,N-Dimethyl-2-phenylimidazo[1,2-a]pyrimidin-7-amine]
% displacement of [3H]T808 (10 nM) at 10 nM: 35%
% displacement of [3H]T808 (10 nM) at 1 uM: 92%

COc1ccc(-c2cn3ccc(N4CCN(CCF)CC4)nc3n2)cc1.Cl [Example 19, 7-[4-(2-Fluoroethyl)piperazin-1-yl]-2-(4-methoxyphenyl)imidazo[1,2-a]pyrimidine hydrochloride]
% displacement of [3H]T808 (10 nM) at 1 uM: 74%

COc1cccc(-c2cn3ccc(N4CCN(CCF)CC4)nc3n2)c1.Cl [Example 20, 7-[4-(2-Fluoroethyl)piperazin-1-yl]-2-(3-methoxyphenyl)imidazo[1,2-a]pyrimidine hydrochloride]
% displacement of [3H]T808 (10 nM) at 1 uM: 51%

CN(CCF)c1ccn2cc(-c3ccccc3)nc2n1 [Example 21, N-(2-Fluoroethyl)-N-methyl-2-phenylimidazo[1,2-a]pyrimidin-7-amine]
% displacement of [3H]T808 (10 nM) at 1 uM: 84%

COc1cccc(-c2cn3ccc(N(C)CCF)nc3n2)c1 [Example 22, N-(2-Fluoroethyl)-2-(3-methoxyphenyl)-N-methylimidazo[1,2-a]pyrimidin-7-amine]
% displacement of [3H]T808 (10 nM) at 1 uM: 82%

COc1ccc(-c2cn3ccc(N(C)CCF)nc3n2)cc1 [Example 23, N-(2-Fluoroethyl)-2-(4-methoxyphenyl)-N-methylimidazo[1,2-a]pyrimidin-7-amine]
% displacement of [3H]T808 (10 nM) at 10 nM: 33%
% displacement of [3H]T808 (10 nM) at 1 uM: 92%

Cl.FCCN1CCN(c2ccn3cc(-c4ccccc4)nc3n2)CC1 [Example 24, 7-[4-(2-Fluoroethyl)piperazin-1-yl]-2-phenylimidazo[1,2-a]pyrimidine hydrochloride]
% displacement of [3H]T808 (10 nM) at 1 uM: 64%

COc1ccc(-c2cn3ccc(N4CCOCC4)nc3n2)cc1 [Example 25, 4-[2-(4-Methoxyphenyl)imidazo[1,2-a]pyrimidin-7-yl]morpholine]
% displacement of [3H]T808 (10 nM) at 10 nM: 16%

Cc1cccc(-c2cn3ccc(N4CCOCC4)nc3n2)c1 [Example 26, 4-[2-(3-Methylphenyl)imidazo[1,2-a]pyrimidin-7-yl]morpholine]
% displacement of [3H]T808 (10 nM) at 10 nM: 13%

COc1ccc(-c2cn3ccc(N4CCOCC4)nc3n2)cc1OC [Example 27, 4-[2-(3,4-Dimethoxyphenyl)imidazo[1,2-a]pyrimidin-7-yl]morpholine]
% displacement of [3H]T808 (10 nM) at 10 nM: 17%

Oc1ccc(-c2cn3ccc(N4CCCC4)nc3n2)cc1 [Example 28, 4-(7-Pyrrolidin-1-ylimidazo[1,2-a]pyrimidin-2-yl)phenol]
% displacement of [3H]T808 (10 nM) at 10 nM: 22%

FCCOc1ccc(-c2cn3ccc(N4CCCC4)nc3n2)cc1 [Example 29, 2-[4-(2-Fluoroethoxy)phenyl]-7-pyrrolidin-1-ylimidazo[1,2-a]pyrimidine]
% displacement of [3H]T808 (10 nM) at 10 nM: 15%

FCOc1ccc(-c2cn3ccc(N4CCCC4)nc3n2)cc1 [Example 30, 2-[4-(Fluoromethoxy)phenyl]-7-pyrrolidin-1-ylimidazo[1,2-a]pyrimidine]
% displacement of [3H]T808 (10 nM) at 10 nM: 9%

CO[C@@H]1CCN(c2ccn3cc(-c4ccccc4)nc3n2)C1 [Example 31, 7-[(3R)-3-Methoxypyrrolidin-1-yl]-2-phenylimidazo[1,2-a]pyrimidine]
% displacement of [3H]T808 (10 nM) at 10 nM: 7%

CO[C@H]1CCN(c2ccn3cc(-c4ccccc4)nc3n2)C1 [Example 32, 7-[(3S)-3-Methoxypyrrolidin-1-yl]-2-phenylimidazo[1,2-a]pyrimidine]
% displacement of [3H]T808 (10 nM) at 10 nM: 13%

COc1ccc(-c2cn3ccc(N4CC[C@@H](F)C4)nc3n2)cc1 [Example 33, 7-[(3R)-3-Fluoropyrrolidin-1-yl]-2-(4-methoxyphenyl)imidazo[1,2-a]pyrimidine]
% displacement of [3H]T808 (10 nM) at 10 nM: 25%

COc1ccc(-c2cn3ccc(N4CC[C@H](F)C4)nc3n2)cc1 [Example 34, 7-[(3 S)-3-Fluoropyrrolidin-1-yl]-2-(4-methoxyphenyl)imidazo[1,2-a]pyrimidine]
% displacement of [3H]T808 (10 nM) at 10 nM: 15%

COc1cccc(-c2cn3ccc(N(C)C)nc3n2)c1 [Example 35, 2-(3-Methoxyphenyl)-N,N-dimethylimidazo[1,2-a]pyrimidin-7-amine]
% displacement of [3H]T808 (10 nM) at 10 nM: 34%
